Assay results published in patent US12280047B2, “Treatment of aneurysms” (Georgia State Research Foundation, Inc., priority 2017, dated 2025).

How the values were obtained:
Format in all cases: in vivo
[1] = tested on: ApoE−/− and ApoE−/−/IDO−/− mice; experiment: Blood pressure and heart rate in AngII-infused mice; details: 4 weeks, mean ± s.e.m.; for sBP: AngII 1000 ng/min/kg; for Dbp / HR: AngII
From the text: IDO^−/− and ApoE^−/− mice were obtained from Jackson laboratory (Bar Harbor, Maine) in a C57BL/6 background. IDO^−/− mice were crossed with ApoE^−/− mice to generate ApoE^−/−/IDO^−/− mice. Mice were housed in temperature-controlled cages under a 12-hour light/dark cycle and given free access to water and normal chow. All procedures involving animals were approved by the Institutional Animal Care and Use Committee at the University of Oklahoma Health Sciences Center. […] Circ Res. (2014) 114:480-92.
Circ Res. (2014) 114:480-92.
AngII-induced mouse AAA formation in the atherosclerotic-susceptible strain (ApoE^−/−) has become the most widely used model. See Qin Z, et al., Angiotensin II-induced TLR4 mediated abdominal aortic aneurysm in apolipoprotein E knockout mice is dependent on STAT3. J Mol Cell Cardiol. (2015) 87:160-70; Rateri D L, et al., Prolonged infusion of angiotensin II in ApoE (−/−) mice promotes macrophage recruitment with continued expansion of abdominal aortic aneurysm. Am J Pathol. (2011) 179:1542-8; Cassis L A, et al., ANG II infusion promotes abdominal aortic aneurysms independent of increased blood pressure in hypercholesterolemic mice. Am J Physiol Heart Circ Physiol. (2009) 296:H1660-5; Daugherty A and Cassis L A. Mouse models of abdominal aortic aneurysms. Arterioscler Thromb Vasc Biol. (2004) 24:429-34; Owens A P, 3rd, Rateri D L, Howatt D A, Moore K J, Tobias P S, Curtiss L K, Lu H, Cassis L A and Daugherty A. MyD88 deficiency attenuates angiotensin II-induced abdominal aortic aneurysm formation independent of signaling through Toll-like receptors 2 and 4. Arterioscler Thromb Vasc Biol. (2011) 31:2813-9. To unravel the role of the Trp-Kyn pathway in AAA formation ApoE^−/−/IDO^−/− (double-knockout) mice were generated and the outcome of a 4-week AngII infusion (1000 ng/min/kg) in ApoE^−/− and ApoE^−/−/IDO^−/− mice was determined. As depicted in Table 1 and 2, AngII infusion increased blood pressure without affecting the heart rate or any metabolic parameters.

[2] = tested on: ApoE−/− and ApoE−/−/IDO−/− mice; experiment: AngII-induced AAA after reciprocal bone marrow transplants; details: AngII 1000 ng/min per kg, 4 weeks
Procedure: Bone marrow transplantation was performed as described previously (Lukasova M, et al., Nicotinic acid inhibits progression of atherosclerosis in mice through its receptor GPR109A expressed by immune cells. J Clin Invest. (2011) 121:1163-73; Duran-Struuck R and Dysko R C. Principles of bone marrow transplantation (BMT): providing optimal veterinary and husbandry care to irradiated mice in BMT studies. J Am Assoc Lab Anim Sci. (2009) 48:11-22). Bone marrow was obtained aseptically from femora and tibiae of ApoE^−/− or ApoE^−/−/IDO^−/− mice. Cells (5×10^6/mouse) were resuspended in sterile PBS and transplanted by intravenous infusion into lethally irradiated (10 Gy) ApoE^−/− or ApoE^−/−/IDO^−/− mice recipients 6 hours after irradiation at the age of 8 weeks.
To quantify AAA incidence and size, the maximum width of abdominal aorta was measure with Image Pro Plus software (Media Cybernetics). We quantified aneurysm incidence based on a definition of aneurysm as an external width of the suprarenal aorta that was increased by 50% or greater compared with aortas from saline-infused mice, as described previously (Sparks A R, et al., Imaging of abdominal aortic aneurysms. Am Fam Physician. (2002) 65:1565-70). The average diameter of the normal suprarenal aorta in control mice is 0.8 mm. We therefore set a threshold of 1.22 mm as evidence of aneurysm formation. […]

[3] = tested on: ApoE−/− mice; experiment: Acipimox preventing AngII-induced abdominal aortic aneurysm (Example 12)
Procedure: To evaluate whether acipimox has inhibitory effects on AngII-induced AAA formation, male ApoE^−/− mice at age eight weeks were administrated either 1) acipimox (0.1% wt) or 2) vehicle control (water) by drinking water. After four weeks, Alzet osmotic mini pumps (Model 2004) were implanted into each group. Pumps were filled either with 1) saline vehicle or 2) solutions of Ang II (Sigma Chemical Co., St. Louis, Missouri, USA) that delivered (subcutaneously) 1.44 mg/kg/day of Ang II for 28 days. Pumps were placed into the subcutaneous space of isoflurane anesthetized mice through a small incision in the back of the neck that was closed with surgical glue. All incision sites healed rapidly without the need for any medication.
To quantify AAA incidence and size, the maximum width of abdominal aorta was measured with Image Pro Plus software (Media Cybernetics). Aneurysm incidence was quantified based on a definition of aneurysm as an external width of the suprarenal aorta that was increased by 50% or greater compared with aortas from saline-infused mice. The average diameter of the normal suprarenal aorta in control mice is 0.8 mm. […]
Abdominal aorta dimeter was measured by ultrasound as described above.
The effect of acipimox on the speed of propagation (i.e. PWV), which is parameter for arterial stiffness, was analyzed.

Angiotensin II (DRVYIHPF; Angiotensin-2; UniProt P01019 25-32, looked up) [AngII, Angiotensin II (Sigma, A9525) infused to induce AAA in mice]
sBP ([1]; Apoe−/− mice): 149.1 ± 19.5 mm Hg | sBP ([1]; Apoe−/−/IDO−/− mice): 155.6 ± 18.4 mm Hg | Dbp ([1]; Apoe−/− mice): 112.7 ± 17.3 mmHg | HR ([1]; Apoe−/− mice): 471 ± 42 Beats/min | Dbp ([1]; Apoe−/−/IDO−/− mice): 119.1 ± 14.9 mmHg | HR ([1]; Apoe−/−/IDO−/− mice): 453 ± 43 Beats/min | AAA incidence ([2]; ApoE−/− mice transplanted with IDO−/− or IDO+/+ bone marrow cells): approximately 70% | AAA incidence ([2]; ApoE−/−/IDO−/− mice transplanted with IDO−/− or IDO+/+ bone marrow cells): 20% | mortality rate ([3]; Ang II 1.44 mg/kg/day 28 days, with acipimox 0.1% wt or vehicle): 28.6% | mice that developed AAA (AAA incidence) ([3]; Ang II 1.44 mg/kg/day s.c. 28 days, acipimox 0.1% wt or vehicle in drinking water, started four weeks before): Eighty
